Assay results reported in patent publication US20040048791A1, “Method for treating neoplastic cells using cycloprodigiosin or salt thereof” (priority 2002, published 2004).
Entries after “also recorded” stand apart in the source; their conditions may differ. Where a name gives a salt, the structure may show the parent alone.

Key:
PKA = PKA (Homo sapiens, UniProt P17612); experiment: PKA activity in vitro; assay type: biochemical; conditions: FIG. 13, hydrochloride
Excerpt: (§1) Accordingly, in order to identify the p65 kinase which cPrG-HCl suppressed, the effect of cPrG-HCl on PKA (FIG. 13), casein kinase II (CKII) (FIG. 12), and IκB kinase (IKK) (FIG. 14) was studied in vitro.

AP-1 [1] = conditions: earlier abstract of the inventors (Kamata et al., 2000); cited from earlier work
IκB kinase (IKK) = target: T1, IκB kinase (IKK) (Homo sapiens, UniProt O14920+O15111); experiment: IκB kinase activity in vitro; assay type: biochemical; conditions: FIG. 14, hydrochloride
T1 sequence (O15111 1-745): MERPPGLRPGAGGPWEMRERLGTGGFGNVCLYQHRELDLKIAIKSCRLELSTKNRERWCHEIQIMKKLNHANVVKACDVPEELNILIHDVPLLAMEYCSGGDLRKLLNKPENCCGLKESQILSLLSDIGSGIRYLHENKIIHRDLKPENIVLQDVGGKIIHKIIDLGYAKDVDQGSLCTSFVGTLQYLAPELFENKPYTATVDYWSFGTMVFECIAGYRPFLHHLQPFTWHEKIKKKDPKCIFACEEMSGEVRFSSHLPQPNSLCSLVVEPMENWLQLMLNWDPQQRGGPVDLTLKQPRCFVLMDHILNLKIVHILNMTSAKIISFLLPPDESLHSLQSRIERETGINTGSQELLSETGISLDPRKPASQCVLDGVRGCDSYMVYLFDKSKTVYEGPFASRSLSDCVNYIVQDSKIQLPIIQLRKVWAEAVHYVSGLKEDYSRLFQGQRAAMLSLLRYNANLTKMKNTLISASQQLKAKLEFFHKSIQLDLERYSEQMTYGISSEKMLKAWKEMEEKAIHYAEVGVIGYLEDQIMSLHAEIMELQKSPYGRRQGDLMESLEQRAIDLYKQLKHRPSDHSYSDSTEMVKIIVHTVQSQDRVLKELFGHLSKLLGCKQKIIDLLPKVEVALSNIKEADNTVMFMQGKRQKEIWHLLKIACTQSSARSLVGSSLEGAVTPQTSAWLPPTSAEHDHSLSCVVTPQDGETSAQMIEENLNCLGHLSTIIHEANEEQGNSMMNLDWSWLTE
T1 sequence (O14920 1-756): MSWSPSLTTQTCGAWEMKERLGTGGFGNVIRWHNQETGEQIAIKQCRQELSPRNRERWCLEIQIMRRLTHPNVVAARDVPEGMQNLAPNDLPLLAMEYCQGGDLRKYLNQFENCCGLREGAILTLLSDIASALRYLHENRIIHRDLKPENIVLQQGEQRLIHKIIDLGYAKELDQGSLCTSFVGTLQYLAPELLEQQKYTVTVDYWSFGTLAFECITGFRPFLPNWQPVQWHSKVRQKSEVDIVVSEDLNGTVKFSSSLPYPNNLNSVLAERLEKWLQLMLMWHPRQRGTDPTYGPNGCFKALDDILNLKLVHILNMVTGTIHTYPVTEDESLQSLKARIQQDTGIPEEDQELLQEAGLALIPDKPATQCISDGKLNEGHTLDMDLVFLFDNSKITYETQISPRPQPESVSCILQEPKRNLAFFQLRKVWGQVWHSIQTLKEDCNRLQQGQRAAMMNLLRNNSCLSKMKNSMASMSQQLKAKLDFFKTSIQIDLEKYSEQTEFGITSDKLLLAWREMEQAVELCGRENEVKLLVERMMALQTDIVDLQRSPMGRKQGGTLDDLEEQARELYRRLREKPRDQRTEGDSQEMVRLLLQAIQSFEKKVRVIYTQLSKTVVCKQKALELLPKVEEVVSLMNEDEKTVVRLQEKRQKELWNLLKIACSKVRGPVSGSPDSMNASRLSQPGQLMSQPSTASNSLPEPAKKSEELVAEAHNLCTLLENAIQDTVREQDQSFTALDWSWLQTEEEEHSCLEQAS
Excerpt: as §1

AP-1 [2] = experiment: EMSA of AP-1 DNA binding activity; assay type: cell-based
Description: In addition, in order to reveal the mechanism of the suppression of AP-1 transcriptional activation, the effect of cPrG-HCl on upstream kinases, i.e., JNK and p38, was analyzed. Further, relationship between the suppression of AP-1 transcriptional activation by cPrG-HCl and the acidification of intracellular pH was studied.

JNK = conditions: earlier abstract of the inventors (Kamata et al., 2000); cited from earlier work

COC1=CC(c2ccc[nH]2)=N/C1=C\c1[nH]c(C)c2c1C(C)CCC2 (centres unmarked) [cPrG-HCl, Cycloprodigiosin hydrochloride]
effect on PKA activity (PKA): does not directly suppress; also recorded: no suppressive effect | gene expression induction by AP-1 (AP-1 [1]): significantly suppressed | effect on IκB kinase (IKK) activity (IκB kinase (IKK)): does not directly suppress; also recorded: no suppressive effect | DNA binding activity of AP-1 (AP-1 [2]): no inhibitory effect | JNK activation (JNK): no suppressive effect
